Data set [1] has as its system L1210 tumor cells. The data set can be described thus: Antitumor efficacy in L1210 leukemia-bearing CDF1 mice (Experiment-2). Type of data set: in vivo. Conditions: for Weight Changes: first day to seventh day. Here is the method: In the following test, antitumor efficacy studies were performed using 8-9 weeks old female CDF1 mice, the average weight of the animal is 20-25 grams. L1210 tumor cells (about 10^5 cells per mouse) were inoculated intraperitoneally. The water-soluble platinum complexes were used to treat the tumor-bearing animals and the efficacy was compared compared with the clinical platinum antitumor drugs. […] Drugs were administered intraperitoneally on day 1 and day 4 after tumor cell transplantation. The number of experimental animals in each group was 6.
The experimental animals were purchased from Vital River Laboratory Animal Technology Co. Ltd., Tumor cells L1210-leukemia cells were purchased from Shanghai An Yan Commercial Trade Co. Ltd.
The increase in life span (ILS) is calculated as follows:
Wherein, St=the weighted median survival time of treated animals; Su=the weighted median survival time of untreated animals

The nature of data set [2]: Solubility in water at room temperature (Experiment-1).
[3] abbreviates: 1.25 mg/Kg i.p. day 1 and day 4.

Consider “cis-[trans-(1R,2R)-diamino cyclohexane] Pt (II) (1-O-D-glucoside-propane-3-chloro-3,3-dicarboxylate) [Example 1]”, for which, in data set [1] (50 mg/Kg i.p. day 1 and day 4), the ILS was over 425%, the “Survival Animals on Day 42” value is given as 6/6 and the “Weight Changes” value is “+1.1 g”. For the same compound, in data set [1] (100 mg/Kg i.p. day 1 and day 4), the ILS is on record as over 425%, the “Survival Animals on Day 42” value is 6/6 and the “Weight Changes” value was “+0 g”. For the same compound, in data set [1] (200 mg/Kg i.p. day 1 and day 4), the ILS is over 425%, the “Survival Animals on Day 42” value is given as 6/6 and the “Weight Changes” value was -0.4 g.
As for `N.N.O=C([O-])C1(C(=O)[O-])CCC1.[Pt+2]` [Carboplatin, carboplatin], the “Survival Animals on Day 42” value is given as 0/6 in data set [1] (24 mg/Kg i.p. day 1 and day 4); 0/6 in data set [1] (40 mg/Kg i.p. day 1 and day 4); 1/6 in data set [1] (80 mg/Kg i.p. day 1 and day 4). The “Weight Changes” value is “+0.6 g” in data set [1] (24 mg/Kg i.p. day 1 and day 4); -0.4 g in data set [1] (40 mg/Kg i.p. day 1 and day 4); -1.2 g in data set [1] (80 mg/Kg i.p. day 1 and day 4). In addition, the solubility in data set [2] is 16.6 mg/1 mL H2O.
Take `N.N.[Cl][Pt][Cl]` [Cisplatin, cisplatin]: the “Survival Animals on Day 42” value is listed as 0/6 in data set [1] (setting [3]); 1/6 in data set [1] (2.5 mg/Kg i.p. day 1 and day 4); 3/6 in data set [1] (5.0 mg/Kg i.p. day 1 and day 4). Moreover, the “Weight Changes” value was “+1.1 g” in data set [1] (setting [3]); -0.6 g in data set [1] (2.5 mg/Kg i.p. day 1 and day 4); -2.2 g in data set [1] (5.0 mg/Kg i.p. day 1 and day 4).

As a reminder, the ILS is how much longer treated animals lived than controls. High values mean much gain in survival, low ones little gain in survival.

The values above are taken from patent US20150051387A1, “WATER SOLUBLE PLATINUM COMPLEXES FOR TUMOR TREATMENT AND PROCESS OF PREPARING SAME” (GUDUI BIOPHARMA TECHNOLOGY INC., priority 2011, published 2015).
